Non-standard residues stand in square brackets, D forms with d. Residues, ends and D or L forms follow the SMILES beside them. *: point of attachment. Hydrocinnamoyl = O=C(CCc1ccccc1)*; pS = N[C@@H](COP(=O)(O)O)C(=O)O; X2 = COc1ccc(CC(=O)*)cc1OC
Target: BRCT-BRCA1 (Homo sapiens, UniProt P38398)
Assay: Fluorescence polarization
Type: binding

Sequence of BRCT-BRCA1 (P38398 1646-1859 limits assumed): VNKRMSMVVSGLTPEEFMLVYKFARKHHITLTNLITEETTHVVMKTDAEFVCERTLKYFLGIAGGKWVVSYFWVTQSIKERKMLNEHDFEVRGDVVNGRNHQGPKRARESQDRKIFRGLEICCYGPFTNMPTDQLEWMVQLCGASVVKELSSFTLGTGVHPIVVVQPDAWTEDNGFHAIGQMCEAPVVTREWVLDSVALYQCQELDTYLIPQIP

Row | SMILES | fold loss of activity compared to 9 (compared to mimic 9) | fold higher activity than parent peptide 4 (compared to parent peptide 4)
1 | COc1ccc(CC(=O)N[C@@H](COP(=O)(O)O)C(=O)N2CCC[C@H]2C(=O)N[C@H](C(=O)N[C@@H](Cc2ccccc2)C(=O)O)C(C)C)cc1OC [compound 13] (X2-[pS]PVF-OH; N-terminus assumed) | ~ 150 fold | –
2 | CC(C)[C@H](NC(=O)[C@@H]1CCCN1C(=O)[C@H](COP(=O)(O)O)NC(=O)CCc1ccccc1)C(=O)N[C@@H](Cc1ccccc1)C(=O)O [compound 10] (Hydrocinnamoyl-[pS]PVF-OH; N-terminus assumed) | – | ~ 3 fold

Source: publication PMC3201719 (ACS medicinal chemistry letters, 2011)
